US20040115801A1, “Model epithelial cell cultures” (KINETANA GROUP INC., priority 2002, published 2004)
Like-named read-outs stand apart in the source and are kept apart here. Blank lines part the entries; values can stand above or below the compound they belong to.

Legend:
[1] = system: cell layer of the invention; test: Ginkgo extract ingredient profiles, apical vs basal side of the cell layer; assay type: in vitro ADME, human
Description: FIG. 8. Representative chromatogram of intact flavonol glycosides determined in fluid from the apical side of the cell layer 60 minutes after application of standardized ginkgo extract (equivalent of 10 mg extract).
FIG. 9. Representative chromatogram of intact flavonol glycosides determined in fluid from the basal side of the cell layer 60 minutes after application of standardized ginkgo extract (equivalent of 10 mg extract).
FIG. 10. Representative chromatogram of ginkgolides determined in fluid from the apical side of the cell membrane 60 minutes after application of standardized ginkgo extract (equivalent of 20 mg extract).
FIG. 11. Representative chromatogram of ginkgolides determined in fluid from the basal side of the cell layer 60 minutes after application of standardized ginkgo extract (equivalent of 400 mg extract).
In some embodiments, compositions for processing in accordance with the methods of the invention may include natural substances, such as crude extracts or formulations from natural products such as plants, which may be dissolved or suspended in an aqueous solution, such as a pH buffered solution or an artificial intestinal fluid. In alternative embodiments, a sample of these substances may be treated with artificial gastric juices to test prior to processing with the cell layers of the invention, for example to test for potential decomposition of ingredients under acidic conditions. In some embodiments, a known concentration of the solution or composition for processing, in either buffered solution or artificial intestinal fluid, may be applied to the apical or first side of the cell layer (membrane). Subsequently, one or more samples may be collected from the basal or second side of the cell layer, which may for example contain a cell culture medium or human plasma or components of human plasma such as albumin. In alternative embodiments, samples may be taken from the apical and basal sides for ingredient identification and/or quantification. Common analytical approaches such as high performance liquid chromatography (HPLC), mass spectrometry (MS), gas chromatography (GC), LC/MS, or GC/MS may then be used for the identification or quantification of the components present in the physiologically modified composition.
Although the invention may be used to conduct permeability screening in a manner similar to how Caco-2 the industry standard is used, it has a unique and novel application in identifying absorbable active ingredients in natural health products (or natural products or nutraceuticals or botanicals or herbals or dietary supplements) or any products that contain mixtures of ingredients of interest (as marker substances or active ingredients) or botanicals. The idea is as follows. Similar to pharmaceutical development, components are not considered active unless they are absorbed into the blood stream. A number of methods have been developed to measure the activities of botanical extracts; very few have measured the active components, let alone absorbable components that are active. It has been shown time and again that marker components that have in vitro activities are not absorbed. The active ingredient profile determined using in vitro methods is usually erroneous; this is particularly true for the proportion of the ingredients required because the absorption of individual components is potentially different. A good example is the determination of the ingredient profiles of Ginkgo biloba. People think that the ratios of the ingredients in the herb are important (See FIGS. 8, 10, Tables 3, 4, apical side ratios). But it is only the absorbed ingredients that can have activity and not all ingredients are absorbed or absorbed at the same rate. Therefore, the profiles of absorbed ingredients will differ from the profiles of ingredients in the product, and it is the absorbed ingredient profiles that are biologically most relevant. […]

SCBN cells [2] = test: TEER of SCBN cell layers in different culture conditions; assay type: cell-based, human; settings: SCBN cells on rat-tail collagen, supplemented base medium; day 3 (48 hours after medium change)
Description: FIG. 1: illustrates the TEER values of SCBN cells in different culture conditions. TEER measurement was conducted by using EVOM voltmeter from World Precision Instrument.
TEER values may be assayed using any conventional equipment capable of measuring electrical resistance, such as […] from World Precision Instruments.
(§1) To assay the structure of microvilli and to measure TEER, SCBN cells were cultured with DMEM media supplemented with FBS and collected at 24 hours post confluence. Harvested cells were seeded at the density of 1E5 cells/well in Falcon multiple insert plates (0.31 cm2/well). […] Forty-eight hours after medium change, SCBN cells were processed for SEM examination following conventional SEM sample preparation. Assessments of microvilli structure were made from SEM images.

SCBN cells [3] = test: Microvilli structure of SCBN cells by SEM; assay type: cell-based, human; settings: SEM 48 hours after medium change; for length of microvilli: 5 μM Ro31-8220 and/or 5 mM sodium butyrate in base medium
Description: as §1

SCBN cells [4] = test: Enzyme expression in SCBN cell lysate; assay type: cell-based, human; settings: 5 μM Ro 31-8220 alone
Description: FIG. 2: illustrates the expression of enzymes in SCBN cells cultured under culture conditions of the invention. Enzyme activity is expressed as milliunit per mg of protein. One unit equals the digestion of one μmole of substrate per minute at 37° C. AP: Alkaline phosphatase; DPP: dipeptidylpeptidase-IV; APN: aminopeptidase N; APA: aminopeptidase A.
To assay patterns of enzyme expression, SCBN cells were cultured with DMEM media supplemented with FBS and collected at 24 hours post confluence. SCBN cells were seeded with DMEM supplemented with FBS at 1E5 cells/well in non-coated and rat-tail collagen-coated Falcon multiple insert plate. Twenty-four hours after seeding media were change with DMEM supplemented with FBS with DMEM supplemented with FBS in non-coated inert wells whereas the media in rat-tail collagen-coated wells were changed with Kinetana base media supplemented with 5 μM of Ro31-8220 and 5 mM of sodium butyrate. Forty-eight hours after medium change, SCBN cells were lysed with ⅕ strength of Tris buffered saline on ice and the whole cell lysate was assayed for enzyme activity by incubating the cell lysate with specific substrate for 60 minutes at 37° C. […]

[5] = system: monolayers of the invention (Kinetana cell line); test: Permeability across monolayers of the invention; assay type: in vitro ADME, human
Source text: (§2) (He, Murby et al. 1998) relate the permeability profile of PEG oligomers to tight junction pore size. Their data in CaCo-2 correspond very closely to Kinetana's data with Caco-2, in that there is a steep drop-off in permeability between molecular weights 200 and 450, then a leveling off. The invention permeability, in contrast, declines slowly and continuously from MW 200 to over 1,000 Da (FIG. 3).
(§3) The bioavailability of PEG 900 is reported to be 10% (Yee 1997).

Caco-2 = test: Permeability across CaCo-2 monolayers; assay type: in vitro ADME, human
Source text: as §2, §3

[6] = system: Kinetana cells using the Buret growth condition; test: Permeability in Kinetana cells using the Buret growth condition; assay type: in vitro ADME, human
Source text: The proprietary growth conditions result in a different paracellular diffusion performance of the Kinetana cell line compared with CaCo-2 and T-84 human colon cancer cell lines (He, Murby et al. 1998) and also SCBN with the Buret condition. The proprietary condition correlates better with human paracellular marker permeability, and this appears to relate to the differences in tight junction pore size between the new method and the others. The evidence for these claims is as follows.
as §3

[7] = Yee 1997; cited from earlier work
[8] = apical side (pre-absorption), six commercial ginkgo extract samples
[9] = basal side (absorbed ingredients), six commercial ginkgo extract samples

Compound: CC(C)(C)[C@]1(O)CC2OC(=O)CC23C(=O)OC2OC(=O)[C@H](O)C231 (some centres unmarked) [Bilobalide]
- Ginkgo terpene lactone components ratio to Ginkgolide A, Apical side Mean [1, 8]: 0.66
- Ginkgo terpene lactone components ratio to Ginkgolide A, Basal side Mean [1, 9]: 0.44

Compound: C[C@@H]1C(=O)O[C@H]2C[C@@]34[C@H]5C[C@@H](C(C)(C)C)[C@]36[C@@H](OC(=O)[C@@H]6O)O[C@@]4(C(=O)O5)[C@]21O [Ginkgolide A]
- Ginkgo terpene lactone components ratio to Ginkgolide A, Apical side Mean [1, 8]: 1.00
- Ginkgo terpene lactone components ratio to Ginkgolide A, Basal side Mean [1, 9]: 1.00

- Ginkgo terpene lactone components ratio to Ginkgolide A, Apical side Mean [1, 8]: 0.20
- Ginkgo terpene lactone components ratio to Ginkgolide A, Basal side Mean [1, 9]: 0.12
Compound: CC1C(=O)OC2C(O)C34C5CC(C(C)(C)C)C36C(OC(=O)C6O)OC4(C(=O)O5)C12O (centres unmarked) [Ginkgolide B]

Compound: Cn1cc(C2=C(c3cn(CCCSC(=N)N)c4ccccc34)C(=O)NC2=O)c2ccccc21 [Ro31-8220, 2-{1-[3-(amidinothio)propyl]-1H-indol-3-yl}-3-(1-meethylindol-3-yl)-maleimide methanesulfonate]
- TEER value (SCBN cells [2]): about 680 ohm.cm^2
- length of microvilli (SCBN cells [3]): did not measurably increase
- percentage of cells with long microvilli (SCBN cells [3]; compared with base medium): did not measurably increase
- expression of alkaline phosphatase activity (SCBN cells [4]): up-regulate

- Ginkgo intact flavone components ratio to Rutin, Apical Mean [1, 8]: 1.00
- Ginkgo intact flavone components ratio to Rutin, basal Mean [1, 9]: 1.00
Compound: C[C@@H]1O[C@@H](OC[C@H]2O[C@@H](Oc3c(-c4ccc(O)c(O)c4)oc4cc(O)cc(O)c4c3=O)[C@H](O)[C@@H](O)[C@@H]2O)[C@H](O)[C@H](O)[C@H]1O [Rutin]

Compound: CCCC(=O)[O-].[Na+] [sodium butyrate]
- TEER value (SCBN cells [2]): about 175 ohm.cm^2
- length of microvilli (SCBN cells [3]): < 0.1 um

Compound: Ginkgolide C
- Ginkgo terpene lactone components ratio to Ginkgolide A, Apical side Mean [1, 8]: 0.32
- Ginkgo terpene lactone components ratio to Ginkgolide A, Basal side Mean [1, 9]: 0.20

- Ginkgo terpene lactone components ratio to Ginkgolide A, Apical side Mean [1]: 0.86
- Ginkgo terpene lactone components ratio to Ginkgolide A, Basal side Mean [1]: 0.55
Compound: Ginkgolide J

- permeability ([5]; conditions of the invention): ~1 ×10⁻⁶ cm/s
- predicted human bioavailability ([5]; predicted from permeability under conditions of the invention): around 12%
- permeability (Caco-2): too low to be measured
- permeability [6]: too low to be measured
Compound: PEG 900
- bioavailability (reported) [7]: 10%
